The values that follow come from patent publication US20190185479A1, “BICYCLIC NITROGENATED HETEROCYCLIC COMPOUND” (MITSUBISHI TANABE PHARMA CORPORATION, priority 2016, published 2019).

In this test the target is hPDE10A (Homo sapiens, UniProt Q9Y233). The test is described as follows: PDE10 inhibition assay (IC50), Experimental Example 3. As to conditions: for IC50: hPDE10A, read-out: PDE inhibition assay IC50, PDE10; for inhibition at 10 µM: at 10 μmol/L, read-out: inhibition rate (%) at prescribed concentration, PDE10. Format: biochemical. A digest of the protocol:
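Recombinant human enzymes incubated with compound and 3 nmol/L cAMP (final) in Tris-HCl pH 7.5 buffer with MgCl2, BSA, DTT, 2% DMSO final, 60 min at room temperature. Residual cAMP measured by TR-FRET (LANCE Ultra), reaction stopped with 0.5 mmol/L IBMX. IC50 from inhibition relative to no-compound (0%) and no-enzyme (100%) controls.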

Sequence of hPDE10A (Q9Y233 290-1055 limits assumed): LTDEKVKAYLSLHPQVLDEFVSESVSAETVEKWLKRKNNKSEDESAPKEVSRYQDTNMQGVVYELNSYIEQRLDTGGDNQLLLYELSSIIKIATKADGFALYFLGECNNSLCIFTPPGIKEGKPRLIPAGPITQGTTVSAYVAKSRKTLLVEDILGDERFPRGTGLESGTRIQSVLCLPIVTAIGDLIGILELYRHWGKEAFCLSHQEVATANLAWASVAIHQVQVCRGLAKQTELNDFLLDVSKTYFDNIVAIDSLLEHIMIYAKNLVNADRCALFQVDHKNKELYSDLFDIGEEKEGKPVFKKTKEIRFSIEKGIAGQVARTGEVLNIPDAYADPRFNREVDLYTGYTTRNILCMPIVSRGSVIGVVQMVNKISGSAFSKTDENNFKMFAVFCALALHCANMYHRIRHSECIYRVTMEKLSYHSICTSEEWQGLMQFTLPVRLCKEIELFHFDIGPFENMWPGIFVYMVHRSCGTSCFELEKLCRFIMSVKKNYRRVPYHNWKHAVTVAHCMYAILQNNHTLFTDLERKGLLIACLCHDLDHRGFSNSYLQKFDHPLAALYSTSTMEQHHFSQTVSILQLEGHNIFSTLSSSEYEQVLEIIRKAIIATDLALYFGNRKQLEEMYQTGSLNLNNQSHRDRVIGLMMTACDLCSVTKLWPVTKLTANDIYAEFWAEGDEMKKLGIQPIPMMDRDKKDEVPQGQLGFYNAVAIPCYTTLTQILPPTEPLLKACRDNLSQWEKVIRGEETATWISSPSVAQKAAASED

The term IC50 denotes the concentration at which inhibition is half-maximal. As to `CC1CCCCC1n1nnc2c(N)ncnc21` (single isomer, unassigned) [Example 191, 3-(cis-2-methylcyclohexyl)-3H-[1,2,3]triazolo[4,5-d]pyrimidin-7-amine], the half-inhibitory concentration (IC50) amounted to 3490 nM.
Take `Nc1ncnc2c1nnn2C1CCCCC1` [Example 3, 3-cyclohexyl-3H-[1,2,3]triazolo[4,5-d]pyrimidin-7-amine]: the inhibition at 10 µM is 27%.
With `Cc1nc(N)c2nnn(C3CCCCC3)c2n1` [Example 4], the IC50 was determined as 1750 nM.
As for `Nc1nccn2c(C3CCCCC3)nnc12` [Example 141, 3-cyclohexyl[1,2,4]triazolo[4,3-a]pyrazin-8-amine], the inhibition at 10 µM turned out to be 30%.
On to `C[C@@H]1CCC[C@H](c2nnc3c(N)nccn23)C1` [Example 204, 3-[(1S,3R)-3-methylcyclohexyl][1,2,4]triazolo[4,3-a]pyrazin-8-amine], for which the IC50 came to 2930 nM.
